Measured values published in the supplement of paper PMC11451515.

Tested on: SEM cells
Experiment: cell viability relative to DMSO control; higher = less cytotoxic
Details: 48 h
Method in brief: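 Leukemia cells (NOMO1 or SEM, 500 cells/well; P12-Ichikawa, 1000 cells/well) were seeded in 5 μl in 1536-well plates after at least four passages of adaptation to each medium. They received library compounds in DMSO by pin dosing, 11 threefold points from 47 μM to 0.79 nM. Luminescence with CellTiter-Glo One was read after 48 h at 37°C. Viability is stated per plate relative to DMSO wells, with cell-free wells as background.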

[1] = HPLM + 10% dialyzed FBS, 0.000781 µM
[2] = HPLM + 10% dialyzed FBS, 0.00234 µM
[3] = HPLM + 10% dialyzed FBS, 0.00702 µM
[4] = HPLM + 10% dialyzed FBS, 0.0211 µM
[5] = HPLM + 10% dialyzed FBS, 0.0632 µM
[6] = HPLM + 10% dialyzed FBS, 0.19 µM
[7] = HPLM + 10% dialyzed FBS, 0.569 µM
[8] = HPLM + 10% dialyzed FBS, 1.71 µM
[9] = HPLM + 10% dialyzed FBS, 5.12 µM
[10] = HPLM + 10% dialyzed FBS, 15.4 µM
[11] = HPLM + 10% dialyzed FBS, 46.1 µM
[12] = RPMI 5 mM glucose + 10% FBS, 0.000781 µM
[13] = RPMI 5 mM glucose + 10% FBS, 0.00234 µM
[14] = RPMI 5 mM glucose + 10% FBS, 0.00702 µM
[15] = RPMI 5 mM glucose + 10% FBS, 0.0211 µM
[16] = RPMI 5 mM glucose + 10% FBS, 0.0632 µM
[17] = RPMI 5 mM glucose + 10% FBS, 0.19 µM
[18] = RPMI 5 mM glucose + 10% FBS, 0.569 µM
[19] = RPMI 5 mM glucose + 10% FBS, 1.71 µM
[20] = RPMI 5 mM glucose + 10% FBS, 5.12 µM
[21] = RPMI 5 mM glucose + 10% FBS, 15.4 µM
[22] = RPMI 5 mM glucose + 10% FBS, 46.1 µM
[23] = RPMI 5 mM glucose + 10% dialyzed FBS, 0.000781 µM
[24] = RPMI 5 mM glucose + 10% dialyzed FBS, 0.00234 µM
[25] = RPMI 5 mM glucose + 10% dialyzed FBS, 0.00702 µM
[26] = RPMI 5 mM glucose + 10% dialyzed FBS, 0.0211 µM
[27] = RPMI 5 mM glucose + 10% dialyzed FBS, 0.0632 µM
[28] = RPMI 5 mM glucose + 10% dialyzed FBS, 0.19 µM
[29] = RPMI 5 mM glucose + 10% dialyzed FBS, 0.569 µM
[30] = RPMI 5 mM glucose + 10% dialyzed FBS, 1.71 µM
[31] = RPMI 5 mM glucose + 10% dialyzed FBS, 5.12 µM
[32] = RPMI 5 mM glucose + 10% dialyzed FBS, 15.4 µM
[33] = RPMI 5 mM glucose + 10% dialyzed FBS, 46.1 µM

Row | SMILES | cell viability [1] | cell viability [2] | cell viability [3] | cell viability [4] | cell viability [5] | cell viability [6] | cell viability [7] | cell viability [8] | cell viability [9] | cell viability [10] | cell viability [11] | cell viability [12] | cell viability [13] | cell viability [14] | cell viability [15] | cell viability [16] | cell viability [17] | cell viability [18] | cell viability [19] | cell viability [20] | cell viability [21] | cell viability [22] | cell viability [23] | cell viability [24] | cell viability [25] | cell viability [26] | cell viability [27] | cell viability [28] | cell viability [29] | cell viability [30] | cell viability [31] | cell viability [32] | cell viability [33]
1 | Cc1noc(-c2ccc(CSCCC(=O)O)cc2)c1NC(=O)OC(C)c1ccccc1Cl (configuration not stated) | 95.3% | 95.1% | 99.2% | 89.3% | 88.4% | 97% | 99.7% | 89.3% | 97.1% | 98.7% | 95.6% | 99.9% | 98.8% | 82.5% | 94.5% | 83.9% | 100% | 96.2% | 70.3% | 101% | 89.7% | 81.3% | 90% | 108% | 104% | 115% | 97% | 115% | 101% | 69.3% | 117% | 114% | 88.3%
2 | CCOC1=CC=CC=C1N\2C(=O)C3=C(C=CC=C3)\N=C2C(C)N4CCN(CC4)C(=O)COC5=CC=C(Cl)C=C5 (configuration not stated) | 112% | 111% | 111% | 123% | 114% | 115% | 104% | 26.1% | 9.76% | 5.2% | 3.06% | 124% | 115% | 108% | 101% | 110% | 114% | 28% | 6.16% | 4.12% | 3.03% | 1.64% | 113% | 131% | 119% | 116% | 125% | 136% | 68.6% | 9.93% | 6.21% | 4.51% | 2.93%
3 | OC[C@H]1O[C@@H]2[C@@H](OC\3=N\C(=N)\C=C/[N@@]23)[C@@H]1O | 94% | 107% | 93.1% | 97.8% | 84.4% | 47.9% | 34.6% | 28.1% | 21.9% | 16.1% | 14.5% | 105% | 116% | 102% | 117% | 87% | 46.9% | 41.9% | 23.3% | 16% | 13.8% | 13.5% | 85.3% | 86.2% | 99.8% | 81.1% | 59.8% | 37.8% | 22.4% | 14.8% | 13% | 10.7% | 8.17%
4 | c1ccc(-c2oc3ncnc(NC[C@@H]4CCCO4)c3c2-c2ccccc2)cc1 | 115% | 115% | 114% | 121% | 126% | 130% | 125% | 134% | 128% | 121% | 79.4% | 111% | 112% | 109% | 103% | 108% | 110% | 105% | 106% | 112% | 99.9% | 61.1% | 121% | 129% | 115% | 118% | 104% | 136% | 111% | 112% | 118% | 124% | 69.6%
5 | Cc1ccc2c(c1)c1c(n2CCc2ccc(C)nc2)CCN(C)C1 | 110% | 124% | 120% | 122% | 133% | 131% | 117% | 121% | 135% | 120% | 106% | 116% | 117% | 145% | 147% | 148% | 155% | 140% | 127% | 138% | 134% | 109% | – | – | – | – | – | – | – | – | – | – | –
6 | CC(C)(O)/C=C\C(=O)[C@](C)(O)[C@H]1[C@H](O)C[C@]2(C)[C@@H]3CC=C4[C@@H](C=C(O)C(=O)C4(C)C)[C@]3(C)C(=O)C[C@@]12C | 92.4% | 91.3% | 119% | 100% | 51.8% | 24% | 24% | 21.7% | 20.4% | 6.86% | 4.91% | 97.5% | 85.7% | 109% | 101% | 35% | 15.8% | 13.7% | 11% | 11.9% | 6.54% | 5.36% | 104% | 78.7% | 103% | 108% | 55.6% | 17.5% | 14.2% | 12.8% | 12.5% | 6.59% | 5.46%
7 | CC(C)Cc1ccc(C(C)C(=O)O)cc1 (configuration not stated) | 68.7% | 84.7% | 80.1% | 78.6% | 84.9% | 90.7% | 82.2% | 78.3% | 71.3% | 85.6% | 26.4% | 90.1% | 69.4% | 80.9% | 91.3% | 89.4% | 81.9% | 98.8% | 87% | 95.4% | 77.2% | 22.8% | 93.5% | 84.4% | 89.5% | 90.9% | 87.5% | 98.3% | 99.5% | 98.6% | 100% | 77.5% | 35.7%
8 | CN(C)C(=O)C(CCN1CCC(O)(c2ccc(Cl)cc2)CC1)(c1ccccc1)c1ccccc1 | 68.1% | 109% | 117% | 130% | 127% | 121% | 122% | 117% | 108% | 86.6% | 23.5% | 57.8% | 108% | 141% | 127% | 114% | 127% | 140% | 117% | 110% | 75.5% | 10.3% | – | – | – | – | – | – | – | – | – | – | –
